Source: patent publication US4450149A, “Radiohalogenation method” (Research Corporation, priority 1981, dated 1984)
Read-outs that look alike come from different tables or passages of the source.

Key:
[1] = reported in J. Nucl. Med., 22:0000, 1981; average of 5 rats (standard deviation); cited from earlier work
[2] = Tissue distribution study of radioiodinated fatty acid, 5 min post intravenous injection; format: in vivo, female Sp-raque-Dawley rats; settings: 5 min post injection, approximately 25 μCi, Prepared Via Present Method, average of 5 rats (standard deviation)
Procedure: Tissue Distribution Study The radioiodinated 19-^125 I-iodononadecanoicacid was evaluated in female Sp-raque-Dawley rats weighing 250-350 g. The rats were given food and water ad libidum. For the tissue distribution study, approximately 25 μCi of the fatty acid in a physiological formulation (EtOH/Tween 80/0.9% saline: 2.5 ml/0.65 ml/22 ml) was administered intraveneously to ether anesthetized rats. Five animals were sacrificed at 5 min post injection. Representative 50-100 mg samples of heart, liver, lung, blood, and muscle were removed and cleaned of fat and connective tissue. Samples were counted in an auto-gamma scintillation counter and values corrected for radioactive decay, counting efficiency and background. The resulting tissue concentration values were normalized to a per kilogram body weight and are reported in % kg dose/g. as shown in Table 8.

## O=C(O)CCCCCCCCCCCCCCCCCC[125I] [19-^125 I--iodononadecanoic acid]
[1]
  tissue concentration, Blood: 0.15 ± 0.01 % kg dose/g
  tissue concentration, Heart: 0.88 ± 0.23 % kg dose/g
  tissue concentration, Liver: 0.53 ± 0.02 % kg dose/g
  tissue concentration, Lung: 0.28 ± 0.04 % kg dose/g
  tissue concentration, Muscle: 0.19 ± 0.00 % kg dose/g
[2]
  tissue concentration, Blood: 0.13 ± 0.00 % kg dose/g
  tissue concentration, Heart: 0.71 ± 0.01 % kg dose/g
  tissue concentration, Liver: 0.47 ± 0.03 % kg dose/g
  tissue concentration, Lung: 0.24 ± 0.02 % kg dose/g
  tissue concentration, Muscle: 0.14 ± 0.00 % kg dose/g
